Measured values published in patent US11981658B2, “Substituted aminopyridine compounds as EGFR inhibitors” (YUHAN CORPORATION, priority 2021, dated 2024).
Where two headings read alike, the source gives them in different places.

What was measured:
[1] = target: EGFR L858R/C797S (Homo sapiens, UniProt P00533, C797S/L858R); assay: Biochemical EGFR kinase inhibition assay (Lance Ultra TR-FRET), double mutant L858R/C797S
Method in brief: (§1)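 Kinase activity is measured by TR-FRET phosphopeptide detection. Compounds span 0.003 μM to 10 μM; the 1 h reaction at room temperature is quenched with EDTA, then labelled antibody (2 nM) is incubated 60 min before reading.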

[2] = target: EGFR Del19/C797S (Homo sapiens, UniProt P00533, C797S/DEL746-750); assay: Biochemical EGFR kinase inhibition assay (Lance Ultra TR-FRET), double mutant del19/C797S
Chain of EGFR Del19/C797S (P00533 with tags, fused parts or gaps DEL746-750/C797S): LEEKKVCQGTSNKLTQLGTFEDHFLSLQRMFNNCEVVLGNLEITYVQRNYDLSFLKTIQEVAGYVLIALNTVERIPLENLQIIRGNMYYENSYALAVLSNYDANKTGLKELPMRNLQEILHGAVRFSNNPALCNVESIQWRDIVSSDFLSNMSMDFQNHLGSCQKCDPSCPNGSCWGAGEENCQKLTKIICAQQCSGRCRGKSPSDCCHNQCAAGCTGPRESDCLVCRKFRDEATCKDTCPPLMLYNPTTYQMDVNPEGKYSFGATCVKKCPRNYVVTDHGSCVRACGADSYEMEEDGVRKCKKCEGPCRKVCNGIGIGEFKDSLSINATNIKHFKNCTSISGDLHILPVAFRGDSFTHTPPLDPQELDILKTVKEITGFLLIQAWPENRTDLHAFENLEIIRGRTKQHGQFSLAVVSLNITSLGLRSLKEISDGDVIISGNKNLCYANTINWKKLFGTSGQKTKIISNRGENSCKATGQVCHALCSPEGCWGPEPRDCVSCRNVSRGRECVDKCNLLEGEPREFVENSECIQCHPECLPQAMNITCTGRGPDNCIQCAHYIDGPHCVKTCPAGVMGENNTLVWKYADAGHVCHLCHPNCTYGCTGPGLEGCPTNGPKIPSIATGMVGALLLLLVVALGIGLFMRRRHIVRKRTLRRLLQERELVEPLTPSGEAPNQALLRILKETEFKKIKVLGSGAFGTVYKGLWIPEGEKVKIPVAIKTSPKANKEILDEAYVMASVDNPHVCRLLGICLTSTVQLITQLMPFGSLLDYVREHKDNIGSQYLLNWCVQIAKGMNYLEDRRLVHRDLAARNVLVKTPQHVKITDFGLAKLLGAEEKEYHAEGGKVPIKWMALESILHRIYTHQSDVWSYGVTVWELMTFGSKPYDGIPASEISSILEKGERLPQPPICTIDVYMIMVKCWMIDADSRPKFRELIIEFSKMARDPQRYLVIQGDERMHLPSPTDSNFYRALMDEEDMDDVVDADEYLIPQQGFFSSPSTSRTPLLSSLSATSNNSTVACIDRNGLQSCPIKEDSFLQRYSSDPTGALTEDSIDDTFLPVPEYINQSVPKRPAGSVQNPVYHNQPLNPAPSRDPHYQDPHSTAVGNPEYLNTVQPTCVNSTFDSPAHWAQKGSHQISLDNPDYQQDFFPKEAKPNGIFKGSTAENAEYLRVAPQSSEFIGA
Method in brief: as §1

[3] = target: EGFR Del19/T790M/C797S (Homo sapiens, UniProt P00533, C797S/DEL746-750/T790M); assay: Biochemical EGFR kinase inhibition assay (Lance Ultra TR-FRET), triple mutant del19/T790M/C797S
Chain of EGFR Del19/T790M/C797S (P00533 with tags, fused parts or gaps DEL746-750/T790M/C797S): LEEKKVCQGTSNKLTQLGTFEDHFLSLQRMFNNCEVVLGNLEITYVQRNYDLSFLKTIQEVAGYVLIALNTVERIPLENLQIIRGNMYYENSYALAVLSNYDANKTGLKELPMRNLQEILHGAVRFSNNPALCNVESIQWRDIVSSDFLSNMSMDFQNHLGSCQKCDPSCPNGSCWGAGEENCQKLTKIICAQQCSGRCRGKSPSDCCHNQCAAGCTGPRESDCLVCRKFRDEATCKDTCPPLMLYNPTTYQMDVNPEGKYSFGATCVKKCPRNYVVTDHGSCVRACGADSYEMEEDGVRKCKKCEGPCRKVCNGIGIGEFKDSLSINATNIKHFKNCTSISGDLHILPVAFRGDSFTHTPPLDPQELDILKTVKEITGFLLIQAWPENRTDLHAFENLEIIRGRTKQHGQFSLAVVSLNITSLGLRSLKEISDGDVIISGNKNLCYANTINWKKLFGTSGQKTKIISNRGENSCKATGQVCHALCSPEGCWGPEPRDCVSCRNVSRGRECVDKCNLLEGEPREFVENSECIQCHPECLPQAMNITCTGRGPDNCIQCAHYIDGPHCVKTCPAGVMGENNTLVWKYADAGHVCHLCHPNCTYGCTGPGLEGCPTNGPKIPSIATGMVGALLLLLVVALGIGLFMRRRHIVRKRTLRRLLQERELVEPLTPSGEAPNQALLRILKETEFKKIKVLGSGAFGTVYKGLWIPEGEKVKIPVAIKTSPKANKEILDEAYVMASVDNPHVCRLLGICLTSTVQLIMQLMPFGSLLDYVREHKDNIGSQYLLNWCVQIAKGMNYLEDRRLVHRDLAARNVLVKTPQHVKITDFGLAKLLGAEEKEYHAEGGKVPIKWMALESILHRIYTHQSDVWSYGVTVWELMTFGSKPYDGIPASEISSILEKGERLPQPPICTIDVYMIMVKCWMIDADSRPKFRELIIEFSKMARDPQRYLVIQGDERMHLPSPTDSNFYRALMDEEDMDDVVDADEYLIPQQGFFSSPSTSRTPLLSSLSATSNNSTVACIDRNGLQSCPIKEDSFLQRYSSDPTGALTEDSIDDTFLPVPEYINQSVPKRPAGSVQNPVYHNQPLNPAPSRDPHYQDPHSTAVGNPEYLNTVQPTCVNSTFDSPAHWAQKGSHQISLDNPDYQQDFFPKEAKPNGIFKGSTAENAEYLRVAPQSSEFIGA
Method in brief: as §1

[4] = target: EGFR L858R/T790M/C797S (Homo sapiens, UniProt P00533, C797S/L858R/T790M); assay: Biochemical EGFR kinase inhibition assay (Lance Ultra TR-FRET), triple mutant L858R/T790M/C797S
Method in brief: as §1

[5] = target: EGFR wildtype (WT) (Homo sapiens, UniProt P00533); assay: Biochemical EGFR kinase inhibition assay (Lance Ultra TR-FRET), wildtype
Chain of EGFR wildtype (WT) (P00533 25-1210): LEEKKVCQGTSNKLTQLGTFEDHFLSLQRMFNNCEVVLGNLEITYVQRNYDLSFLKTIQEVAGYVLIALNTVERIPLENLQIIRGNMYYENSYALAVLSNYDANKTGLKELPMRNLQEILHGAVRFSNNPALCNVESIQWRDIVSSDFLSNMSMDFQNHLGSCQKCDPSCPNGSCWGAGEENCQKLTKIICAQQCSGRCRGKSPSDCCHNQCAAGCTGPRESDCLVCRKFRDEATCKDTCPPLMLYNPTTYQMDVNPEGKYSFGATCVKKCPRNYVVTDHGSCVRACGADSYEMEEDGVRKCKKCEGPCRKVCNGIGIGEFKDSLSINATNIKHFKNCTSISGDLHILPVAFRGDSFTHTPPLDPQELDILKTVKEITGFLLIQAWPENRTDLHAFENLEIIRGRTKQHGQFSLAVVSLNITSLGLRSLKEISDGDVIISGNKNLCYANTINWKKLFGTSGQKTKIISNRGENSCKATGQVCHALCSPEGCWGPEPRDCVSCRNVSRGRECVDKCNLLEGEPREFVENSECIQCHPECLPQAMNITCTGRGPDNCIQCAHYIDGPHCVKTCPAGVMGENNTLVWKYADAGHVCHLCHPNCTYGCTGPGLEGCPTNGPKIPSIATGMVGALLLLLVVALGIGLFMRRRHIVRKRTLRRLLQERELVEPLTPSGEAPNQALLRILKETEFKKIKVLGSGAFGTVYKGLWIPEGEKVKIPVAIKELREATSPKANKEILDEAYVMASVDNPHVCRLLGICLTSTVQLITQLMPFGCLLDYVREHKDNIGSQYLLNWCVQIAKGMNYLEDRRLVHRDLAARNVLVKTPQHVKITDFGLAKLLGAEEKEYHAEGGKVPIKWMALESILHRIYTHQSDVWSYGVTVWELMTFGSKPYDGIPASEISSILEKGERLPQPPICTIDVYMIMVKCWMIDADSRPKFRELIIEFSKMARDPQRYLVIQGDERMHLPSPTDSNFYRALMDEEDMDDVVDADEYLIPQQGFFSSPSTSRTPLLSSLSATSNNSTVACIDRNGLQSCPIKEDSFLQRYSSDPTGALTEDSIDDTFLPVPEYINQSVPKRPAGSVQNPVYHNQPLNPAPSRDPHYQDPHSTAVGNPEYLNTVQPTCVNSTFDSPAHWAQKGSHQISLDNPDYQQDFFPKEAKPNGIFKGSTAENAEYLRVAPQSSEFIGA
Method in brief: as §1

[6] = ATP at Km, read-out: IC50 L858R/C797S (nM), Km ATP
[7] = IC50 L858R/C797S (nM), 100 μM ATP
[8] = ATP at Km, read-out: IC50 Del19/C797S (nM), Km ATP
[9] = IC50 Del19/C797S (nM), 100 μM ATP
[10] = ATP at Km, read-out: IC50 Del19/T790M/C797S (nM), Km ATP
[11] = IC50 Del19/T790M/C797S (nM), 100 μM ATP
[12] = ATP at Km, read-out: IC50 L858R/T790M/C797S (nM), Km ATP
[13] = IC50 L858R/T790M/C797S (nM), 100 μM ATP
[14] = ATP at Km, read-out: IC50 WT (nM), Km ATP
[15] = read-out: IC50 L858R/C797S (nM), 100 μM ATP
[16] = read-out: IC50 Del19/C797S (nM), 100 μM ATP
[17] = read-out: IC50 Del19/T790M/C797S (nM), 100 μM ATP
[18] = read-out: IC50 L858R/T790M/C797S (nM), 100 μM ATP
[19] = read-out: IC50 WT (nM), 100 μM ATP

Chain of EGFR L858R/C797S (P00533 25-1210 C797S/L858R): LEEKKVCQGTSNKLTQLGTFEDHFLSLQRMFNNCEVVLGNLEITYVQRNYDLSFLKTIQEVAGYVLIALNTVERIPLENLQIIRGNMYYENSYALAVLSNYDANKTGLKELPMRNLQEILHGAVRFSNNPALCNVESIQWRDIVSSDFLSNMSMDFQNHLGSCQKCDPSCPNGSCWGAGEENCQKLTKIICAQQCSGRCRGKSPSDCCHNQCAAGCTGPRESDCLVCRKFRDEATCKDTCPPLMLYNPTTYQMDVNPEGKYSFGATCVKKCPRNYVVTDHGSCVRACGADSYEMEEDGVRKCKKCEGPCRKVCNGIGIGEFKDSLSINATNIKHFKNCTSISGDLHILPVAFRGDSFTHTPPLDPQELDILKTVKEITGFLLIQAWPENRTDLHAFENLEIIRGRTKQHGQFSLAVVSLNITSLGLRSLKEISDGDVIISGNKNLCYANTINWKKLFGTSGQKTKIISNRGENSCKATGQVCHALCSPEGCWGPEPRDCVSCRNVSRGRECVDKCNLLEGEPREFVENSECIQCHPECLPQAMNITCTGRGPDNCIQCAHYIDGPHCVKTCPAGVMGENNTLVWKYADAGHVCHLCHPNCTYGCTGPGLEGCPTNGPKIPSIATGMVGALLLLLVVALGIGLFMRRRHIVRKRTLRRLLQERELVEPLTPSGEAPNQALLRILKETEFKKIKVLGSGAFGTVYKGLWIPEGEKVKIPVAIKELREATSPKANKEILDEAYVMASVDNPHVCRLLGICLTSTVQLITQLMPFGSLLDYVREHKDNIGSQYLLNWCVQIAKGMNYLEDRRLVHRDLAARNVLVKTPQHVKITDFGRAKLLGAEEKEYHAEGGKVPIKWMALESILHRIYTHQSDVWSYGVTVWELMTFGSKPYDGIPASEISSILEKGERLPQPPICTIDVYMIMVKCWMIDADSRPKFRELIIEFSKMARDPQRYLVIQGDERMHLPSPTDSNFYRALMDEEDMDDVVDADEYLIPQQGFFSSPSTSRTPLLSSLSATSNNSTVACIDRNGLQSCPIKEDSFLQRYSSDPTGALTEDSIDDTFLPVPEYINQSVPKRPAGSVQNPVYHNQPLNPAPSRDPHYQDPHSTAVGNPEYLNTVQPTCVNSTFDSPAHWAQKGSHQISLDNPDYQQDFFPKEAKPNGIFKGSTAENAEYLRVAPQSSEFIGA

Row | Structure (SMILES) | IC50 [1, 6] [nM] | IC50 [1, 7] [nM] | IC50 [2, 8] [nM] | IC50 [2, 9] [nM] | IC50 [3, 10] [nM] | IC50 [3, 11] [nM] | IC50 [4, 12] [nM] | IC50 [4, 13] [nM] | IC50 [5, 14] [nM] | IC50 ([5]; IC50 WT (nM), 100 μM ATP) [nM] | IC50 [1, 15] [nM] | IC50 [2, 16] [nM] | IC50 [3, 17] [nM] | IC50 [4, 18] [nM] | IC50 [5, 19] [nM]
1 | O=S(=O)(C1CC1)n1cc(-c2nccc(Nc3cc(N[C@H]4CC[C@@H](O)CC4)c(C#Cc4ccc(CN5CCOCC5)cc4)cn3)n2)cn1 [Example 157, (1s,4s)-4-((2-((2-(1-(Cyclopropylsulfonyl)-1H-pyrazol-4-yl)pyrimidin-4-yl)amino)-5-((4-(morpholinomethyl)phenyl)ethynyl)pyridin-4-yl)amino)cyclohexan-1-ol] | 3.3 | 40.8 | 3.7 | 10.6 | 3.3 | 3.6 | 1.7 | 4.6 | 127 | > 10000 | – | – | – | – | –
2 | C[C@]1(O)CC[C@@H](Nc2cc(Nc3ccnc(-c4cnn(S(=O)(=O)C5CC5)c4)n3)ncc2C#Cc2ccc(CN3CCOCC3)cc2)CC1 [Example 158, (1s,4s)-4-((2-((2-(1-(Cyclopropylsulfonyl)-1H-pyrazol-4-yl)pyrimidin-4-yl)amino)-5-((4-(morpholinomethyl)phenyl)ethynyl)pyridin-4-yl)amino)-1-methylcyclohexan-1-ol] | 15.3 | – | 18.3 | – | 6.2 | – | 2.5 | – | 523 | – | 809 | 131 | 6.8 | 8.4 | > 10000
3 | O=S(=O)(C1CC1)n1cc(-c2nccc(Nc3cc(N[C@H]4CCC[C@@H](O)C4)c(C#Cc4ccc(CN5CCOCC5)cc4)cn3)n2)cn1 [Example 159, (1R,3S)-3-((2-((2-(1-(Cyclopropylsulfonyl)-1H-pyrazol-4-yl)pyrimidin-4-yl)amino)-5-((4-(morpholinomethyl)phenyl)ethynyl)pyridin-4-yl)amino)cyclohexan-1-ol] | 7.4 | 98.5 | 7.7 | 21.7 | 8.3 | 10.6 | 3.4 | 9.6 | 85.5 | > 10000 | – | – | – | – | –
4 | O=S(=O)(C1CC1)n1cc(-c2nccc(Nc3cc(N[C@@H]4CCC[C@H](O)C4)c(C#Cc4ccc(CN5CCOCC5)cc4)cn3)n2)cn1 [Example 160, (1S,3R)-3-((2-((2-(1-(Cyclopropylsulfonyl)-1H-pyrazol-4-yl)pyrimidin-4-yl)amino)-5-((4-(morpholinomethyl)phenyl)ethynyl)pyridin-4-yl)amino)cyclohexan-1-ol] | 3.8 | 65.6 | 4.1 | 10.1 | 5.7 | 7.3 | 2.5 | 6.2 | 64.8 | > 10000 | – | – | – | – | –
5 | O=S(=O)(C1CC1)n1cc(-c2nccc(Nc3cc(N[C@H]4CCC[C@H](O)C4)c(C#Cc4ccc(CN5CCOCC5)cc4)cn3)n2)cn1 [Example 161, (1 S,3S)-3-((2-((2-(1-(Cyclopropylsulfonyl)-1H-pyrazol-4-yl)pyrimidin-4-yl)amino)-5-((4-(morpholinomethyl)phenyl)ethynyl)pyridin-4-yl)amino)cyclohexan-1-ol] | 21.6 | 547 | 25.5 | 38.2 | 5.5 | 8.8 | 3.2 | 10.6 | 650 | > 10000 | – | – | – | – | –
6 | CC(C)(O)[C@H]1CC[C@@H](Nc2cc(Nc3ccnc(-c4cnn(S(=O)(=O)C5CC5)c4)n3)ncc2C#Cc2ccc(CN3CCOCC3)cc2)CC1 [Example 162, 2-((1s,4s)-4-((2-((2-(1-(Cyclopropylsulfonyl)-1H-pyrazol-4-yl)pyrimidin-4-yl)amino)-5-((4-(morpholinomethyl)phenyl)ethynyl)pyridin-4-yl)amino)cyclohexyl)propan-2-ol] | 39.9 | 619 | 44.8 | 58.4 | 27.6 | 22.9 | 12.2 | 26.3 | 540 | > 10000 | – | – | – | – | –
7 | C[C@]1(O)CC[C@@H](Nc2cc(Nc3ccnc(-c4cnn(S(=O)(=O)C5CC5)c4)n3)ncc2C#CCN2CCOCC2)CC1 [Example 166, (1s,4s)-4-((2-((2-(1-(Cyclopropylsulfonyl)-1H-pyrazol-4-yl)pyrimidin-4-yl)amino)-5-(3-morpholinoprop-1-yn-1-yl)pyridin-4-yl)amino)-1-methylcyclohexan-1-ol] | 21.9 | – | 66.5 | – | 1.4 | – | 0.9 | – | 411 | – | 194 | 51.1 | 1.9 | 3.8 | > 10000
8 | CCc1cnc(C#Cc2cnc(Nc3ccnc(-c4cnn(S(=O)(=O)C5CC5)c4)n3)cc2N[C@@H]2CCC[C@H](O)C2)s1 [Example 168, (1S,3R)-3-((2-((2-(1-(Cyclopropylsulfonyl)-1H-pyrazol-4-yl)pyrimidin-4-yl)amino)-5-((5-ethylthiazol-2-yl)ethynyl)pyridin-4-yl)amino)cyclohexan-1-ol] | 784 | 8370 | 67.9 | 391 | 11 | 11.8 | 9.1 | 71.2 | 6250 | > 10000 | – | – | – | – | –
9 | Nc1cccc(C#Cc2cnc(Nc3ccnc(-c4cnn(S(=O)(=O)C5CC5)c4)n3)cc2N[C@@H]2CCC[C@H](O)C2)c1 [Example 169, (1 S,3R)-3-((5-((3-Aminophenyl)ethynyl)-2-((2-(1-(cyclopropylsulfonyl)-1H-pyrazol-4-yl)pyrimidin-4-yl)amino)pyridin-4-yl)amino)cyclohexan-1-ol] | 30.6 | 391 | 4.7 | 10.5 | 7.1 | 3.1 | 2.6 | 6.8 | 238 | > 10000 | – | – | – | – | –

Now from value to compound:

Row | IC50 [1, 6] [nM] | IC50 [1, 7] [nM] | IC50 [2, 8] [nM] | IC50 [2, 9] [nM] | IC50 [3, 10] [nM] | IC50 [3, 11] [nM] | IC50 [4, 12] [nM] | IC50 [4, 13] [nM] | IC50 [5, 14] [nM] | IC50 ([5]; IC50 WT (nM), 100 μM ATP) [nM] | IC50 [1, 15] [nM] | IC50 [2, 16] [nM] | IC50 [3, 17] [nM] | IC50 [4, 18] [nM] | IC50 [5, 19] [nM] | Structure (SMILES)
10 | 19.4 | 309 | 20.8 | 34.3 | 0.6 | 0.6 | 0.5 | 1.9 | 90.6 | > 10000 | – | – | – | – | – | Cn1cc(C#Cc2cnc(Nc3ccnc(-c4cnn(S(=O)(=O)C5CC5)c4)n3)cc2N2CC3(CCNCC3)C2)cn1 [Example 155, 2-(1-(Cyclopropylsulfonyl)-1H-pyrazol-4-yl)-N-(5-((1-methyl-1H-pyrazol-4-yl)ethynyl)-4-(2,7-diazaspiro[3.5]nonan-2-yl)pyridin-2-yl)pyrimidin-4-amine]
11 | 1.2 | 9 | 0.3 | 0.4 | 0.1 | 0.1 | 0.04 | 0.1 | 2.6 | 2100 | – | – | – | – | – | Cn1cc(C#Cc2cnc(Nc3ccnc(-c4cnn(S(=O)(=O)C5CC5)c4)n3)cc2N2CCC3(CCNC3)CC2)cn1 [Example 156, 2-(1-(Cyclopropylsulfonyl)-1H-pyrazol-4-yl)-N-(5-((1-methyl-1H-pyrazol-4-yl)ethynyl)-4-(2,8-diazaspiro[4.5]decan-8-yl)pyridin-2-yl)pyrimidin-4-amine]
12 | 0.6 | 2.2 | 0.9 | 1.6 | 0.7 | 0.6 | 0.2 | 0.5 | 1.5 | 236 | – | – | – | – | – | CN1CCN(Cc2ccc(C#Cc3cnc(Nc4ccnc(-c5cnn(S(=O)(=O)C6CC6)c5)n4)cc3N3CCC(C)(CO)CC3)cc2)CC1 [Example 164, (1-(2-((2-(1-(Cyclopropylsulfonyl)-1H-pyrazol-4-yl)pyrimidin-4-yl)amino)-5-((4-((4-methylpiperazin-1-yl)methyl)phenyl)ethynyl)pyridin-4-yl)-4-methylpiperidin-4-yl)methanol]
13 | 24 | 532 | 81.8 | 88.8 | 3.7 | 3.4 | 3.5 | 15.4 | 279 | > 10000 | – | – | – | – | – | Cn1cnc(C#Cc2cnc(Nc3ccnc(-c4cnn(S(=O)(=O)C5CC5)c4)n3)cc2N[C@H]2CC[C@@H](O)CC2)n1 [Example 167, (1s,4s)-4-((2-((2-(1-(Cyclopropylsulfonyl)-1H-pyrazol-4-yl)pyrimidin-4-yl)amino)-5-((1-methyl-1,2,4-triazol-3-yl)ethynyl)pyridin-4-yl)amino)cyclohexan-1-ol]
